From PubChem BioAssay (NCI)
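In this assay, cells in 96-well plates receive the compound at five concentrations for 48 hours. Endpoints are linearly interpolated between the surrounding concentrations. At the GI50, growth is halved. The concentration for full growth arrest is given as TGI.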

What was measured:
Experiment in all cases: NCI anticancer screen, dose series, 48 h
[1] = test system: RXF 393 renal
[2] = test system: CAKI-1 renal
[3] = test system: SK-OV-3 ovarian
[4] = test system: HOP-92 NSCLC
[5] = test system: MCF7 breast
[6] = test system: MDA-MB-435
[7] = test system: NCI-H522 lung
[8] = test system: SF-268 CNS
[9] = test system: COLO 205 colon
[10] = test system: HCT-15 colon
[11] = test system: SR leukemia
[12] = test system: HT29 colon
[13] = test system: MOLT-4 leukemia
[14] = test system: SF-295 CNS
[15] = test system: T-47D breast
[16] = test system: NCI-H23 lung
[17] = test system: SNB-19 CNS
[18] = test system: CCRF-CEM leukemia
[19] = test system: UACC-62 melanoma
[20] = test system: HOP-62 NSCLC
[21] = test system: HL-60(TB) leukemia
[22] = test system: HS 578T breast
[23] = test system: M14 melanoma
[24] = test system: OVCAR-3 ovarian
[25] = test system: SK-MEL-5 melanoma
[26] = test system: OVCAR-4 ovarian
[27] = test system: PC-3 prostate
[28] = test system: U251 CNS
[29] = test system: SK-MEL-28 melanoma
[30] = test system: UO-31 renal
[31] = test system: OVCAR-8 ovarian
[32] = test system: RPMI-8226 leukemia
[33] = test system: NCI/ADR-RES ovarian
[34] = test system: NCI-H460 lung
[35] = test system: 786-0 renal
[36] = test system: MDA-MB-231 breast
[37] = test system: ACHN renal
[38] = test system: BT-549 breast
[39] = test system: IGROV1 ovarian
[40] = test system: SF-539 CNS
[41] = test system: OVCAR-5 ovarian
[42] = test system: TK-10 renal
[43] = test system: SNB-75 CNS
[44] = test system: SK-MEL-2 melanoma
[45] = test system: SW-620 colon
[46] = test system: EKVX NSCLC
[47] = test system: DU-145 prostate
[48] = test system: HCT-116 colon
[49] = test system: SN12C renal
[50] = test system: K-562 leukemia
[51] = test system: HCC-2998 colon
[52] = test system: KM12 colon
[53] = test system: A549 NSCLC
[54] = test system: LOX IMVI melanoma
[55] = test system: UACC-257 melanoma
[56] = test system: NCI-H226 lung
[57] = test system: A498 renal
[58] = test system: MALME-3M melanoma
[59] = test system: MDA-N

CCCCCCCCCCCCCCCCCC1=NCCN1CS(=O)(=O)O
GI50 [1]: 15.4 µM | TGI [1]: 35.6 µM | GI50 [2]: 9.3 µM | TGI [2]: 22.6 µM | GI50 [3]: 18.1 µM | TGI [3]: 39.4 µM | GI50 [4]: 7.82 µM | TGI [4]: 26.2 µM | GI50 [5]: 13.4 µM | TGI [5]: 35.2 µM | GI50 [6]: 2.84 µM | TGI [6]: 9.82 µM | GI50 [7]: 24.5 µM | TGI [7]: 54 µM | GI50 [8]: 13.9 µM | TGI [8]: 30.2 µM | GI50 [9]: 5.07 µM | TGI [9]: 18.5 µM | GI50 [10]: 4.49 µM | TGI [10]: 23.5 µM | GI50 [11]: 7.85 µM | TGI [11]: > 100 µM | GI50 [12]: 4.44 µM | TGI [12]: 19.9 µM | GI50 [13]: 10.2 µM | TGI [13]: 38.6 µM | GI50 [14]: 3.55 µM | TGI [14]: 16.5 µM | GI50 [15]: 20 µM | TGI [15]: 43.1 µM | GI50 [16]: 15.4 µM | TGI [16]: 33.4 µM | GI50 [17]: 17.9 µM | TGI [17]: 40.9 µM | GI50 [18]: 3.96 µM | TGI [18]: > 100 µM | GI50 [19]: 16.9 µM | TGI [19]: 35.1 µM | GI50 [20]: 14.1 µM | TGI [20]: 31.4 µM | GI50 [21]: 14.3 µM | TGI [21]: 39.9 µM | GI50 [22]: 11.6 µM | TGI [22]: 40 µM | GI50 [23]: 6.19 µM | TGI [23]: 21 µM | GI50 [24]: 15 µM | TGI [24]: 33.7 µM | GI50 [25]: 18.8 µM | TGI [25]: 40.5 µM | GI50 [26]: 14.9 µM | TGI [26]: 33 µM | GI50 [27]: 11.4 µM | TGI [27]: 26.1 µM | GI50 [28]: 9.54 µM | TGI [28]: 29 µM | GI50 [29]: 19.2 µM | TGI [29]: 34.7 µM | GI50 [30]: 6.28 µM | TGI [30]: 23 µM | GI50 [31]: 20.4 µM | TGI [31]: 48.9 µM | GI50 [32]: 26.6 µM | TGI [32]: 90.1 µM | GI50 [33]: 16.1 µM | TGI [33]: 35.3 µM | GI50 [34]: 3.24 µM | TGI [34]: 8.39 µM | GI50 [35]: 17.7 µM | TGI [35]: 35.3 µM | GI50 [36]: 9.34 µM | TGI [36]: 23.7 µM | GI50 [37]: 13 µM | TGI [37]: 28.8 µM | GI50 [38]: 19.5 µM | TGI [38]: 37.7 µM | GI50 [39]: 3.9 µM | TGI [39]: 14.1 µM | GI50 [40]: 19.4 µM | TGI [40]: 46.8 µM | GI50 [41]: 15.4 µM | TGI [41]: 32.7 µM | GI50 [42]: 18.6 µM | TGI [42]: 35.4 µM | GI50 [43]: 17.2 µM | TGI [43]: 44.9 µM | GI50 [44]: 27.7 µM | TGI [44]: 67.4 µM | GI50 [45]: 7.19 µM | TGI [45]: 31.2 µM | GI50 [46]: 11.4 µM | TGI [46]: 25 µM | GI50 [47]: 5.19 µM | TGI [47]: 17.2 µM | GI50 [48]: 10.4 µM | TGI [48]: 30.3 µM | GI50 [49]: 12.8 µM | TGI [49]: 28.9 µM | GI50 [50]: 3.93 µM | TGI [50]: > 100 µM | GI50 [51]: 17 µM | TGI [51]: 34.4 µM | GI50 [52]: 2.78 µM | TGI [52]: 8.49 µM | GI50 [53]: 12.5 µM | TGI [53]: 31.2 µM | GI50 [54]: 2.86 µM | TGI [54]: 12.5 µM | GI50 [55]: 17.1 µM | TGI [55]: 33.9 µM | GI50 [56]: 17.4 µM | TGI [56]: 40.1 µM | GI50 [57]: 14.8 µM | TGI [57]: 31 µM

CC(=O)OCC1OC(n2c3c(c(-c4ccco4)c(C#N)c2=S)CCC3)C(OC(C)=O)C(OC(C)=O)C1OC(C)=O (stereo not given)
TGI [1]: 86.9 µM | TGI [2]: > 100 µM | TGI [3]: > 100 µM | TGI [4]: 69 µM | TGI [5]: > 100 µM | TGI [6]: > 100 µM | TGI [8]: > 100 µM | TGI [9]: > 100 µM | TGI [10]: > 100 µM | TGI [11]: > 100 µM | TGI [12]: > 100 µM | TGI [13]: 45.3 µM | TGI [14]: > 100 µM | TGI [16]: > 100 µM | TGI [17]: > 100 µM | TGI [19]: > 100 µM | TGI [20]: > 100 µM | TGI [21]: > 100 µM | TGI [22]: > 100 µM | TGI [23]: > 100 µM | TGI [24]: > 100 µM | TGI [25]: > 100 µM | TGI [58]: > 100 µM | TGI [26]: > 100 µM | TGI [27]: > 100 µM | TGI [28]: > 100 µM | TGI [29]: > 100 µM | TGI [30]: > 100 µM | TGI [32]: > 100 µM | TGI [33]: > 100 µM | TGI [34]: > 100 µM | TGI [35]: > 100 µM | TGI [37]: > 100 µM | TGI [38]: > 100 µM | TGI [59]: > 100 µM | TGI [39]: > 100 µM | TGI [40]: > 100 µM | TGI [41]: > 100 µM | TGI [42]: > 100 µM | TGI [43]: > 100 µM | TGI [44]: > 100 µM | TGI [45]: > 100 µM | TGI [47]: > 100 µM | TGI [48]: > 100 µM | TGI [49]: > 100 µM | TGI [50]: > 100 µM | TGI [51]: > 100 µM | TGI [52]: > 100 µM | TGI [53]: > 100 µM | TGI [54]: > 100 µM | TGI [55]: > 100 µM

CC1(C)CC(=O)C2=C(C1)OC1=C(C(=O)CC(C)(C)C1)C2CC(c1ccccc1)c1ccc(O)c(O)c1O (stereo not given)
TGI [1]: > 10 µM | TGI [2]: > 10 µM | TGI [4]: > 10 µM | TGI [6]: > 10 µM | TGI [8]: > 10 µM | TGI [10]: > 10 µM | TGI [12]: > 10 µM | TGI [14]: > 10 µM | TGI [16]: > 10 µM | TGI [17]: > 10 µM | TGI [23]: > 10 µM | TGI [24]: > 10 µM | TGI [25]: > 10 µM | TGI [26]: > 10 µM | TGI [27]: > 10 µM | TGI [28]: > 10 µM | TGI [30]: > 10 µM | TGI [31]: > 10 µM | TGI [33]: > 10 µM | TGI [36]: > 10 µM | TGI [37]: > 10 µM | TGI [59]: > 10 µM | TGI [39]: > 10 µM | TGI [40]: > 10 µM | TGI [41]: > 10 µM | TGI [42]: > 10 µM | TGI [43]: > 10 µM | TGI [45]: > 10 µM | TGI [46]: > 10 µM | TGI [47]: > 10 µM | TGI [48]: > 10 µM | TGI [49]: > 10 µM | TGI [52]: > 10 µM | TGI [53]: > 10 µM | TGI [56]: > 10 µM
